Experimental data taken from US12240846B2 (Enliven Inc., priority 2020, dated 2025).
Several values for one entry are separate records, joined by “and”; a condition that tells them apart may be missing. Identical values can stand only once.

Columns and labels:
ABL1 (T315I) = ABL1 (T315I) (Homo sapiens, UniProt P00519, T315I); experiment: Luminescence-based ABL kinase assay (300 μM ATP), ADP-Glo; assay type: biochemical
ABL1 = target: T1, ABL1 (Homo sapiens, UniProt P00519); experiment: as above; assay type: biochemical
T1 construct: purchased Carna Biosciences
Source text: Compounds were serially diluted in DMSO. […] Luminescence signal positively correlates with kinase activity.

Row | SMILES | IC50 (ABL1 (T315I)) | IC50 (ABL1)
1 | COc1ccccc1-c1cc2cc(NC(=O)[C@H]3C[C@H]3CN3CCN(C)CC3)ncc2n1C (relative stereo) [Compound 40, cis-N-(2-(2-methoxyphenyl)-1-methyl-1H-pyrrolo[2,3-c]pyridin-5-yl)-2-((4-methylpiperazin-1-yl)methyl)cyclopropane-1-carboxamide] | 145 nM | 113 nM
2 | COc1ccccc1-c1cc2cc(NC(=O)[C@H]3C[C@H]3CN3CCOCC3)ncc2n1C (relative stereo) [Compound 41, cis-N-(2-(2-methoxyphenyl)-1-methyl-1H-pyrrolo[2,3-c]pyridin-5-yl)-2-(morpholinomethyl)cyclopropane-1-carboxamide] | 212 nM | 324 nM
3 | Cn1c(-c2ccccc2OCCO)cc2cc(NC(=O)C3CC3)ncc21 [Compound 4, N-[2-[2-(2-hydroxyethoxy)phenyl]-1-methylpyrrolo[2,3-c]pyridin-5-yl]cyclopropanecarboxamide] | 599 nM | 817 nM
4 | Cc1c(-c2cc3cc(NC(=O)C4CC4)ncc3n2C)ccc2c1CCN2 [Compound 13, N-[1-methyl-2-(4-methyl-2,3-dihydro-1H-indol-5-yl)pyrrolo[2,3-c]pyridin-5-yl]cyclopropanecarboxamide] | 300 nM | 567 nM
5 | Cc1cc2[nH]ncc2cc1-c1cc2cc(NC(=O)C3CC3)ncc2n1C [Compound 16, N-(1-methyl-2-(6-methyl-1H-indazol-5-yl)-1H-pyrrolo[2,3-c]pyridin-5-yl)cyclopropanecarboxamide] | 545 nM | 184 nM
6 | Cc1cc2[nH]cnc2cc1-c1cc2cc(NC(=O)C3CC3)ncc2n1C [Compound 17, N-[1-methyl-2-(6-methyl-1H-1,3-benzodiazol-5-yl)pyrrolo[2,3-c]pyridin-5-yl]cyclopropanecarboxamide] | 160 nM | 59.7 nM
7 | Cc1c(-c2cc3cc(NC(=O)C4CC4)ncc3n2C)ccc2[nH]ncc12 [Compound 18, N-[1-methyl-2-(4-methyl-1H-indazol-5-yl)pyrrolo[2,3-c]pyridin-5-yl]cyclopropanecarboxamide] | 336 nM | 743 nM
8 | Cc1cccnc1-c1cc2cc(NC(=O)C3CC3)ncc2n1C [Compound 20, N-[1-methyl-2-(3-methylpyridin-2-yl)pyrrolo[2,3-c]pyridin-5-yl]cyclopropanecarboxamide] | 999 nM | > 10000 nM
9 | [2H]C([2H])([2H])Oc1ncccc1-c1cc2cc(NC(=O)[C@H]3C[C@H]3F)ncc2n1C [Compound 33, (1R,2R)-2-fluoro-N-(2-(2-(methoxy-d3)pyridin-3-yl)-1-methyl-1H-pyrrolo[2,3-c]pyridin-5-yl)cyclopropane-1-carboxamide] | 183 nM | 59.5 nM
10 | CCOc1ncccc1-c1cc2cc(NC(=O)[C@H]3C[C@H]3F)ncc2n1C [Compound 37, (1R,2R)-N-[2-(2-ethoxypyridin-3-yl)-1-methylpyrrolo[2,3-c]pyridin-5-yl]-2-fluorocyclopropane-1-carboxamide] | 551 nM | 35.4 nM
11 | COc1ncccc1-c1cc2cnc(NC(=O)C3CC3)cc2n1C [Compound 50, N-[2-(2-methoxypyridin-3-yl)-1-methylpyrrolo[3,2-c]pyridin-6-yl]cyclopropanecarboxamide] | 681 nM | 294 nM
12 | CCn1c(-c2cccnc2OC)cc2cc(NC(=O)[C@@H]3C[C@@H]3F)ncc21 [Compound 63, (1S,2S)-N-(1-ethyl-2-(2-methoxypyridin-3-yl)-1H-pyrrolo[2,3-c]pyridin-5-yl)-2-fluorocyclopropane-1-carboxamide] | 2670 nM and 4510 nM | 1430 nM and 1350 nM
13 | COc1ncncc1-c1cc2cc(NC(=O)[C@@H]3C[C@@H]3F)ncc2n1C [Compound 68, (1S,2S)-2-fluoro-N-(2-(4-methoxypyrimidin-5-yl)-1-methyl-1H-pyrrolo[2,3-c]pyridin-5-yl)cyclopropane-1-carboxamide] | 431 nM | 109 nM
14 | COc1cc2nccn2cc1-c1cc2cc(NC(=O)[C@@H]3C[C@@H]3F)ncc2n1C [Compound 71, (1S,2S)-2-fluoro-N-(2-(7-methoxyimidazo[1,2-a]pyridin-6-yl)-1-methyl-1H-pyrrolo[2,3-c]pyridin-5-yl)cyclopropane-1-carboxamide] | 716 nM | 105 nM
15 | CCNC(=O)Nc1cc2cc(-c3ccccc3OC)n(C)c2cn1 [Compound 77, 3-ethyl-1-[2-(2-methoxyphenyl)-1-methylpyrrolo[2,3-c]pyridin-5-yl]urea] | 148 nM | 95.9 nM
16 | CCNC(=O)Nc1cc2cc(-c3cccnc3OC)n(C)c2cn1 [Compound 78, 3-ethyl-1-[2-(2-methoxypyridin-3-yl)-1-methylpyrrolo[2,3-c]pyridin-5-yl]urea] | 411 nM | 183 nM
17 | CCN1CCN(CCNC(=O)Nc2cc3cc(-c4c(OC)ncc(F)c4OC)n(C)c3cn2)CC1 [Compound 84, 1-[2-(4-ethylpiperazin-1-yl)ethyl]-3-[2-(5-fluoro-2,4-dimethoxypyridin-3-yl)-1-methylpyrrolo[2,3-c]pyridin-5-yl]urea] | 164 nM | 44.5 nM
18 | COc1ncnc(OC)c1-c1[nH]c2cc(NC(=O)[C@@H]3C[C@@H]3F)ncc2c1C [Compound 91, (1S,2S)-N-(2-(4,6-dimethoxypyrimidin-5-yl)-3-methyl-1H-pyrrolo[3,2-c]pyridin-6-yl)-2-fluorocyclopropane-1-carboxamide] | 399 nM | 388 nM
19 | COc1nc(C(F)F)nc(OC)c1-c1cc2cc(NC(=O)[C@@H]3C[C@@H]3F)ncc2n1C [Compound 96, (1S,2S)-N-(2-(2-(difluoromethyl)-4,6-dimethoxypyrimidin-5-yl)-1-methyl-1H-pyrrolo[2,3-c]pyridin-5-yl)-2-fluorocyclopropane-1-carboxamide] | 207 nM | 40.4 nM
20 | COc1nc(OC)c(-c2cc3cc(NC(=O)[C@@H]4C[C@@H]4F)ncc3n2C)c(OC)n1 [Compound 102, (1S,2S)-2-fluoro-N-(1-methyl-2-(2,4,6-trimethoxypyrimidin-5-yl)-1H-pyrrolo[2,3-c]pyridin-5-yl)cyclopropane-1-carboxamide] | 412 nM | 123 nM
21 | CNc1ncnc(OC)c1-c1cc2cc(NC(=O)[C@@H]3C[C@@H]3F)ncc2n1C [Compound 109, (1S,2S)-2-fluoro-N-(2-(4-methoxy-6-(methylamino)pyrimidin-5-yl)-1-methyl-1H-pyrrolo[2,3-c]pyridin-5-yl)cyclopropane-1-carboxamide] | 203 nM | 60.2 nM
22 | COc1ncnc(NC2CC2)c1-c1cc2cc(NC(=O)[C@@H]3C[C@@H]3F)ncc2n1C [Compound 110, (1S,2S)-N-(2-(4-(cyclopropylamino)-6-methoxypyrimidin-5-yl)-1-methyl-1H-pyrrolo[2,3-c]pyridin-5-yl)-2-fluorocyclopropane-1-carboxamide] | 357 nM | 280 nM

Now from value to compound:

Row | IC50 (ABL1 (T315I)) | IC50 (ABL1) | SMILES
23 | 78.3 nM | 78.3 nM | COc1ncc(F)c(OC)c1-c1cc2cc(NC(=O)[C@H]3C[C@@H]3CN(C)C)ncc2n1C (single isomer, unassigned) [Compound 131]
24 | 85.9 nM | 48.6 nM | COc1ccnc(OC)c1-c1cc2cc(NC(=O)[C@@H]3C[C@H]3CN3CCNCC3)ncc2n1C (single isomer, unassigned) [Compound 139]
25 | 66.7 nM | 30 nM | COc1ccnc(OC)c1-c1cc2cc(NC(=O)[C@H]3C[C@@H]3CN3CC4CC(C3)N4)ncc2n1C (single isomer, unassigned) [Example 135, Enantiomer 1]
26 | 26 nM | 10.6 nM | COc1ccnc(OC)c1-c1cc2cc(NC(=O)[C@@H]3C[C@H]3CN3CC4CC(C3)N4)ncc2n1C (single isomer, unassigned) [Example 135, Enantiomer 2]
27 | 124 nM | 29.6 nM | Cc1cc2[nH]ccc2cc1-c1cc2cc(NC(=O)C3CC3)ncc2n1C [Compound 14, N-(1-methyl-2-(6-methyl-1H-indol-5-yl)-1H-pyrrolo[2,3-c]pyridin-5-yl)cyclopropanecarboxamide]
28 | 101 nM | 103 nM | Cc1c(-c2cc3cc(NC(=O)C4CC4)ncc3n2C)ccc2[nH]ccc12 [Compound 15, N-[1-methyl-2-(4-methyl-1H-indol-5-yl)pyrrolo[2,3-c]pyridin-5-yl]cyclopropanecarboxamide]
29 | 68.3 nM | 263 nM | Cc1c(-c2cc3cc(NC(=O)C4CC4)ncc3n2C)ccc2[nH]cnc12 [Compound 19, N-[1-methyl-2-(4-methyl-1H-1,3-benzodiazol-5-yl)pyrrolo[2,3-c]pyridin-5-yl]cyclopropanecarboxamide]
30 | 17.9 nM | 220 nM | COc1cccc(F)c1-c1c(C)c2cc(NC(=O)[C@H]3C[C@H]3F)ncc2n1C [Compound 45, (1R,2R)-2-fluoro-N-[2-(2-fluoro-6-methoxyphenyl)-1,3-dimethylpyrrolo[2,3-c]pyridin-5-yl]cyclopropane-1-carboxamide]
31 | 64.1 nM | 88.6 nM | COc1ccccc1-c1cc2cnc(NC(=O)[C@@H]3C[C@@H]3F)cc2n1C [Compound 51, (1S,2S)-2-fluoro-N-[2-(2-methoxyphenyl)-1-methylpyrrolo[3,2-c]pyridin-6-yl]cyclopropane-1-carboxamide]
32 | 7.24 nM | 71.3 nM | COc1cccc(F)c1-c1c(C)c2cnc(NC(=O)[C@H]3C[C@H]3F)cc2n1C [Compound 55, (1R,2R)-2-fluoro-N-[2-(2-fluoro-6-methoxyphenyl)-1,3-dimethylpyrrolo[3,2-c]pyridin-6-yl]cyclopropane-1-carboxamide]
33 | 62.9 nM | 20.4 nM | COc1cc2ncsc2cc1-c1cc2cc(NC(=O)[C@@H]3C[C@@H]3F)ncc2n1C [Compound 69, (1S,2S)-2-fluoro-N-[2-(5-methoxy-1,3-benzothiazol-6-yl)-1-methylpyrrolo[2,3-c]pyridin-5-yl]cyclopropane-1-carboxamide]
